Measurements taken from patent publication US6344351B2, “(R)-transaminase from arthrobacter” (Kaneka Corporation, priority 1995, dated 2002).

Legend:
[1] = test system: (R)-form-specific transaminase of Arthrobacter sp. KNK168; assay: Reactivity of purified enzyme to carbonyl compounds, (R)-1-phenylethylamine as amino donor; type: biochemical; conditions: for Relative Activity (%) of carbonyl compounds: purified enzyme, 25 mM carbonyl compound, 25 mM (R)-1-phenylethylamine, pH 8.5, 30° C., 1 to 3 hours, pyruvic acid = 100; for reactivity of carbonyl compound: (R)-1-phenylethylamine as amino donor
Description: Using the purified enzyme obtained in Example 9, reactivities to various carbonyl compounds using (R)-1-phenylethylamine as an amino donor were evaluated. 50 μl of a solution of the purified enzyme was added to 200 μl of a substrate solution (0.1 M Tris-HCl buffer (pH 8.5), 25 mM (R)-1-phenylethylamine, 0.1 mM pyridoxal phosphate, and 25 mM various carbonyl compounds), and the components were reacted at 30° C. for 1 to 3 hours. The reaction tube was transferred into boiling water to stop the reaction, and, thereafter, the reaction mixture was diluted five-folds with methanol. This diluted solution was analyzed by high-performance liquid chromatography using fine pack C18-5 column and using methanol/water (20:80) as an eluent solution to quantitatively analyze acetophenone formed by the reaction.

[2] = test system: (R)-form-specific transaminase of Arthrobacter sp. KNK168; assay: Reactivity of purified transaminase of present invention to amino compounds, pyruvic acid as amino acceptor; type: biochemical; design: Transaminase of Present Invention (Relative Activity: %), Substrate Specificity: concentration or dose not given beside the values; conditions: for Relative Activity (%) of amino compounds / Transaminase of Present Invention (Relative Activity: %), Substrate Specificity: purified enzyme; for Relative Activity (%) of amino compounds: 40 mM amino compound in substrate solution, 40 mM pyruvic acid, pH 8.3, 30° C., 1 hour, (R)-1-phenylethylamine = 100; for Transaminase of Present Invention (Relative Activity: %), Substrate Specificity / reactivity of amino compound: pyruvic acid as amino acceptor
Description: The differences with the ω-amino acid transaminase derived from Pseudomonas sp. F-1 (Agric. Biol. Chem., 42, 2363-2367 (1978), Agric. Biol. Chem., 43, 1043-1048 (1979), J. Biol. Chem., 258, 2260-2265 (1983)) which have been well studied among the ω-amino acid transaminases, and with the benzylamine transaminase of Okada et al. (Japanese Patent Laid-Open No. Hei 6-178685) are summarized and shown in Table 2. In a case of the transaminase action in the present invention, the data of the purified enzyme are used, and in cases of those by other two enzymes, the data of the purified enzymes which are disclosed in each of the literature publication and patent publication are used. Pyruvic acid is used as an amino acceptor in all cases.
Using the purified enzyme obtained in Example 9, reactivities to various amino compounds when using pyruvic acid as an amino acceptor were evaluated. 150 μl of a solution of the purified enzyme diluted ten-folds was added to 150 μl of a substrate solution (0.1 M potassium phosphate buffer (pH 8.3), 40 mM pyruvic acid, 0.1 mM pyridoxal phosphate, and 40 mM various amino compounds). The components were reacted at 30° C. for 1 hour. The reaction tube was transferred into boiling water to stop the reaction, and, thereafter, a part of the reaction mixture was diluted five-folds. Ten μl of 0.1 M boric acid buffer (pH 8.0) and 20 μl of an ethanol solution of 80 mM of 4-fluoro-7-nitro-2,1,3-benzoxadiazole (NBD-F) were added to 10 μl of the above-mentioned diluted reaction mixture. The components were reacted at 60° C. for 1 minute, and, thereafter, the reaction mixture was ice-cooled, and 460 μl of 5 mM HCl was added thereto. This reaction mixture was analyzed by high-performance liquid chromatography using fine pack C18-5 column and using a 0.1 M potassium phosphate buffer (pH 6.5) and CH3CN (90:10) as an eluent solution to detect formation of alanine-NBD using excitation wavelength of 470 nm and using detection wave of […]. The results thereof are shown in Table 8 in terms of relative activity in the case of using […] as a substrate.

[3] = test system: Arthrobacter species KNK168 strain; assay: Amino donor test; (R)-DMA formation by cultured cells; type: cell-based
Description: The cultured cells were harvested by centrifugation, and the harvested cells were suspended in a reaction mixture (pH 8.5) containing 1% of 1-(3,4-dimethoxyphenyl)-2-propanone, […] of Triton X-100, and 1% of an amino donor shown in Table 2. The components were reacted at 35° C. for 20 hours.

[4] = test system: transaminase (intracellular enzyme) of Arthrobacter sp. KNK168; assay: Activity of the transaminase (intracellular enzyme) against typical substrates of ω-aminotransferases; type: biochemical
[5] = biological target: T1, ω-amino acid transaminase derived from Pseudomonas sp. F-1 (Pseudomonas putida, UniProt P28269); design: concentration or dose not given beside the values; conditions: purified enzyme, literature data; pyruvic acid as amino acceptor; cited from earlier work
T1 sequence (P28269 1-449): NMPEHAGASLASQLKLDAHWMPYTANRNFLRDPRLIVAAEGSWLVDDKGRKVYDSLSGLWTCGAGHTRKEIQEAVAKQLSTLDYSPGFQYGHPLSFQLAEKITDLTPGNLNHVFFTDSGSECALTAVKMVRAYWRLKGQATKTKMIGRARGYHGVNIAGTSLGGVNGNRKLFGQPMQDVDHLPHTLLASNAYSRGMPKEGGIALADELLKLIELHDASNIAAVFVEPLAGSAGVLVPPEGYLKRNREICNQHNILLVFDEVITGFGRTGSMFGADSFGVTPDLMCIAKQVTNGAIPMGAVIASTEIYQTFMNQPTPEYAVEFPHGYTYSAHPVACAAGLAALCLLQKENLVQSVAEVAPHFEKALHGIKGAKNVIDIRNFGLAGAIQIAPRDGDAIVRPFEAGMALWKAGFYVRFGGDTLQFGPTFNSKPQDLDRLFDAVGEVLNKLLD

[6] = test system: Arthrobacter species KNK168 strain; assay: Surfactants and fatty acids as reaction additives; (R)-DMA formation by cells; type: cell-based
Description: The cells obtained by culturing the Arthrobacter species KNK168 strain in the R medium were suspended in a reaction mixture containing 2% of 1-(3,4-dimethoxyphenyl)-2-propanone and 4% of (RS)-1-phenylethylamine. The surfactants and fatty acids shown in Table 6 were added thereto, and the mixture was reacted at 30° C. at a pH of 8.5 for 20 hours.

[7] = 1% amino donor, 1% 1-(3,4-dimethoxyphenyl)-2-propanone, Triton X-100, pH 8.5, 35° C., 20 hours
[8] = amino acceptor 2-ketoglutaric acid, (R)-1-phenylethylamine/pyruvic acid control = 100
[9] = additive 0.1%, 2% ketone, 4% (RS)-1-phenylethylamine, 30° C., pH 8.5, 20 hours, no addition 28.1
[10] = amino acceptor pyruvic acid, (R)-1-phenylethylamine control = 100
[11] = additive 0.5%, otherwise as 0.1%

Compound: CCOC(=O)CC(=O)c1ccccc1 [Ethyl benzoyl acetate]
- Relative Activity (%) of carbonyl compounds [1]: 2%

Compound: CCCCCC(C)N (stereo not shown) [2-Heptylamine]
- Relative Activity (%) of amino compounds [2]: 37%

Compound: CC(N)CO (racemic) [(RS)-2-Amino-1-propanol]
- (R)-DMA Formed (%), amino group donor [3, 7]: 9.6%

Compound: CCC(C)N (stereo not shown) [1-Methylpropylamine]
- Relative Activity (%) of amino compounds [2]: 1.2%

Compound: CC(=O)c1cccnc1 [3-Acetylpyridine]
- Relative Activity (%) of carbonyl compounds [1]: 8%

Compound: CC(=O)c1cccs1 [2-Acetylthiophene]
- Relative Activity (%) of carbonyl compounds [1]: 1%

Compound: NC(=O)CCC(N)C(=O)O (racemic) [DL-Glutamine]
- Relative Activity (%) as amino donor [4, 8]: 0%

Compound: CCC(=O)Cc1ccccc1 [1-Phenyl-2-butanone]
- Relative Activity (%) of carbonyl compounds [1]: 1%

Compound: NCCCC(=O)O [4-Aminobutyric acid]
- ω-Amino Acid Transaminase (Relative Activity: %), Substrate Specificity [5]: 40%
- Relative Activity (%) as amino donor [4, 8]: 0%
- action of the transaminase derived from Arthrobacter on the substrate [2]: does not act
- Transaminase of Present Invention (Relative Activity: %), Substrate Specificity [2]: 0%

Compound: CC(=O)c1nccs1 [2-Acetylthiazole]
- Relative Activity (%) of carbonyl compounds [1]: 10%

Compound: CC(=O)COc1ccccc1 [Phenoxy-2-propanone]
- reactivity of carbonyl compound [1]: favorable reactivities
- Relative Activity (%) of carbonyl compounds [1]: 83%

Compound: N[C@H](CO)Cc1ccccc1 [L-Phenylalaninol]
- Relative Activity (%) of amino compounds [2]: 0.8%

Compound: CCOC(=O)C(C)=O [Ethyl pyruvate]
- Relative Activity (%) of carbonyl compounds [1]: 27%

Compound: N[C@H](CO)c1ccccc1 [(S)-2-Phenylglycinol]
- Relative Activity (%) of amino compounds [2]: 180%
- reactivity of amino compound [2]: favorable reactivities

Compound: COc1ccc(CC(C)=O)cc1OC [1-(3,4-Dimethoxyphenyl)-2-propanone]
- Relative Activity (%) of carbonyl compounds [1]: 7%

Compound: CCCCCCCCCCCCCCCC[N+](C)(C)C.[Br-] [Cetyl trimethyl ammonium bromide (CTAB), Cetyl trimethyl ammonium bromide]
- (R)-DMA Formed (%), additive [6, 9]: 29.1%

Compound: NCCS(=O)(=O)O [Taurine]
- Relative Activity (%) as amino donor [4, 8]: 0%

Compound: O=C1CCCc2ccccc21 [1-Tetralone]
- Relative Activity (%) of carbonyl compounds [1]: 1%

Compound: CCOC(=O)CC(C)=O [Ethyl acetoacetate]
- Relative Activity (%) of carbonyl compounds [1]: 4%

Compound: CC(CN)c1ccccc1 (racemic) [(RS)-1-Amino-2-phenylpropane]
- (R)-DMA Formed (%), amino group donor ([3]; pH 8.5): 1.8%

Compound: CC(=O)C(=O)O [Pyruvic acid]
- Relative Activity (%) of carbonyl compounds [1]: 100%

Compound: CC(N)c1ccccc1 (racemic) [(RS)-1-phenylmethylamine]
- (R)-DMA Formed (%), amino group donor [3, 7]: 3.1%

Compound: CC(=O)CCc1ccccc1 [Benzyl acetone]
- Relative Activity (%) of carbonyl compounds [1]: 3%

Compound: NC(=O)CC(N)C(=O)O (racemic) [DL-Asparagine]
- Relative Activity (%) as amino donor [4, 8]: 0%

Compound: NCCC(N)C(=O)O (stereo not drawn) [α-2,4-Diaminobutyric acid]
- Relative Activity (%) as amino donor [4, 10]: 0%

Compound: CC(=O)Oc1cccnc1 [3-Acetoxypyridine]
- Relative Activity (%) of carbonyl compounds [1]: 1%

Compound: O=C(O)CC(=O)C(=O)O [Oxalacetic acid]
- reactivity of carbonyl compound [1]: favorable reactivities
- Relative Activity (%) of carbonyl compounds [1]: 87%

Compound: 2-Decane
- Relative Activity (%) of carbonyl compounds [1]: 3%

Compound: CC(=O)c1ccccn1 [2-Acetylpyridine]
- Relative Activity (%) of carbonyl compounds [1]: 19%

Compound: CC(=O)c1cnccn1 [2-Acetylpyrazine]
- Relative Activity (%) of carbonyl compounds [1]: 17%

Compound: CC(=O)c1ccncc1 [4-Acetylpyridine]
- Relative Activity (%) of carbonyl compounds [1]: 27%

Compound: CCCCCCC(C)N (stereo not shown) [1-Methylheptylamine]
- Relative Activity (%) of amino compounds [2]: 47%

Compound: CC(N)CC(=O)O (racemic) [DL-3-Aminobutyric acid]
- ω-Amino Acid Transaminase (Relative Activity: %), Substrate Specificity [5]: 96%
- action of the transaminase derived from Arthrobacter on the substrate [2]: does not act
- Transaminase of Present Invention (Relative Activity: %), Substrate Specificity [2]: 0%

Compound: CC(N)c1cccc2ccccc12 (racemic) [(RS)-1-Naphthylethylamine]
- (R)-DMA Formed (%), amino group donor [3, 7]: 34.2%

Compound: Triton X-100
- (R)-DMA Formed (%), additive [6, 9]: 31.6%
- (R)-DMA Formed (%), additive [6, 11]: 34.0%

Compound: CCCCCCCC/C=C\CCCCCCCC(=O)O [Oleic Acid]
- effect of additive on rate of reaction [6]: rate of reaction was increased
- (R)-DMA Formed (%), additive ([6]; additive 2.9%): 44.9%

Compound: CCCCCCCCCCCCOS(=O)(=O)[O-].[Na+] [Sodium dodecyl sulfate]
- effect of additive on rate of reaction [6]: rate of reaction was increased
- (R)-DMA Formed (%), additive [6, 9]: 45.3%
- (R)-DMA Formed (%), additive [6, 11]: 42.2%
- (R)-DMA Formed (%), additive ([6]; additive 1.0%): 46.3%
- (R)-DMA Formed (%), additive ([6]; additive 2.0%): 50.1%
- (R)-DMA Formed (%), additive ([6]; additive 3.0%): 51.9%
- (R)-DMA Formed (%), additive ([6]; additive 4.0%): 53.1%

Compound: COc1ccc(CCC(C)=O)cc1 [4-(4-Methoxyphenyl)-2-butanone]
- Relative Activity (%) of carbonyl compounds [1]: 7%

Compound: CC(N)CCc1ccccc1 (stereo not shown) [3-Aminophenylbutane]
- Relative Activity (%) of amino compounds [2]: 84%
- reactivity of amino compound [2]: favorable reactivities

Compound: CC(=O)c1ccco1 [2-Acetylfuran]
- Relative Activity (%) of carbonyl compounds [1]: 2%

Compound: CCCC(C)N (racemic) [(RS)-2-Aminopentane]
- function as amino donor [3]: functioned as amino donors

Compound: C[C@@H](N)c1ccccc1 [(R)-1-Phenylethylamine]
- activity of the transferase to amino donor [4]: especially high activity
- Relative Activity (%) as amino donor [4, 10]: 100%
- Relative Activity (%) of amino compounds [2]: 100%

Compound: NCCCCC(N)C(=O)O (racemic) [DL-Lysine]
- Relative Activity (%) as amino donor [4, 8]: 0%

Compound: O=CC(=O)O [Glyoxylic acid]
- Relative Activity (%) of carbonyl compounds [1]: 4%

Compound: COc1ccc(C[C@@H](C)N)cc1OC [(R)-3,4-Dimethoxyaminopropane]
- Relative Activity (%) of amino compounds [2]: 30%

Compound: CC(=O)C(C)=O [Diacetyl]
- Relative Activity (%) of carbonyl compounds [1]: 10%

Compound: CCC(=O)C(=O)O [2-Ketobutyric acid]
- Relative Activity (%) of carbonyl compounds [1]: 7%

Compound: COCC(C)=O [1-Methoxy-2-propanone]
- Relative Activity (%) of carbonyl compounds [1]: 16%

Compound: O=CCc1ccccc1 [Phenyl acetaldehyde]
- Relative Activity (%) of carbonyl compounds [1]: 13%

Compound: CCCCC/C=C\C/C=C\CCCCCCCC(=O)O [Linoleic Acid]
- effect of additive on rate of reaction [6]: rate of reaction was increased
- (R)-DMA Formed (%), additive ([6]; additive 2.9%): 45.1%
